Assay [1] deals with T1, Angiotensin-converting enzyme (Homo sapiens, UniProt P12821). Put plainly: Inhibition of ACE at 100 uM.
The target in assay [2] is T1, Angiotensin-converting enzyme. Put plainly: Inhibition of ACE at 400 uM.
For assay [3] the target is unchanged. Put plainly: Inhibition of ACE at 200 uM.
Assay [4] has the same target. The assay can be described thus: Inhibition of ACE.
For assay [5] the target is unchanged. Put plainly: Inhibition of ACE by Lineweaver-Burke plot.
Assay [6] concerns Rattus norvegicus. The assay can be described thus: Antihypertensive activity in spontaneously hypertensive rat assessed as inhibition of angiotensin 1-induced vasopressive response at 40 mg/kg, iv after 30 mins. The class given is functional. Conditions: 0.5 h.
In assay [7] the test system is Rattus norvegicus. The assay can be described thus: Antihypertensive activity in spontaneously hypertensive rat assessed as inhibition of angiotensin 1-induced vasopressive response at 80 mg/kg, iv after 30 mins. The class given is functional. The following applies: 0.5 h.
The test system of assay [8] is Rattus norvegicus. Put plainly: Antihypertensive activity in spontaneously hypertensive rat assessed as inhibition of angiotensin 1-induced vasopressive response at 40 mg/kg, iv after 10 mins. The class given is functional.
For assay [9], the system named is Rattus norvegicus. The assay can be described thus: Antihypertensive activity in spontaneously hypertensive rat assessed as inhibition of angiotensin 1-induced vasopressive response at 80 mg/kg, iv after 10 mins. The class given is functional.
In assay [10] the test system is Rattus norvegicus. The assay can be described thus: Antihypertensive activity in spontaneously hypertensive rat assessed as inhibition of angiotensin 1-induced vasopressive response at 80 mg/kg, iv after 20 mins. It is filed as functional.
Assay [11] has as its system Rattus norvegicus. The assay can be described thus: Antihypertensive activity in spontaneously hypertensive rat assessed as inhibition of angiotensin 1-induced vasopressive response at 20 mg/kg, iv after 20 mins. The class given is functional.
The subject of assay [12] is Rattus norvegicus. The assay can be described thus: Antihypertensive activity in spontaneously hypertensive rat assessed as inhibition of angiotensin 1-induced vasopressive response at 40 mg/kg, iv after 20 mins. The class given is functional.
The subject of assay [13] is Rattus norvegicus. Put plainly: Antihypertensive activity in spontaneously hypertensive rat assessed as inhibition of angiotensin 1-induced vasopressive response at 20 mg/kg, iv after 30 mins. It is filed as functional. The following applies: 0.5 h.
Assay [14] relates to Rattus norvegicus. The assay can be described thus: Antihypertensive activity in spontaneously hypertensive rat assessed as inhibition of angiotensin 1-induced vasopressive response at 20 mg/kg, iv after 10 mins. It is filed as functional.
Assay [15] has as its system Rattus norvegicus. Put plainly: Antihypertensive activity in spontaneously hypertensive rat assessed as inhibition of angiotensin 1-induced vasopressive response at 0.4 mg/kg, iv after 20 mins. The class given is functional.
Assay [16] relates to Rattus norvegicus. The assay can be described thus: Antihypertensive activity in spontaneously hypertensive rat assessed as inhibition of angiotensin 1-induced vasopressive response at 0.04 mg/kg, iv after 10 mins. The class given is functional.
Assay [17] concerns Rattus norvegicus. The assay can be described thus: Antihypertensive activity in spontaneously hypertensive rat assessed as inhibition of angiotensin 1-induced vasopressive response at 0.4 mg/kg, iv after 10 mins. It is filed as functional.
Assay [18] concerns Rattus norvegicus. The assay can be described thus: Antihypertensive activity in spontaneously hypertensive rat assessed as inhibition of angiotensin 1-induced vasopressive response at 0.4 mg/kg, iv after 30 mins. The class given is functional. The following applies: 0.5 h.
For assay [19], the system named is Rattus norvegicus. Put plainly: Antihypertensive activity in spontaneously hypertensive rat assessed as inhibition of angiotensin 1-induced vasopressive response at 0.04 mg/kg, iv after 30 mins. The class given is functional. Conditions: 0.5 h.
Assay [20] has as its system Rattus norvegicus. Put plainly: Antihypertensive activity in spontaneously hypertensive rat assessed as inhibition of angiotensin 1-induced vasopressive response at 0.04 mg/kg, iv after 20 mins. The class given is functional.

The structures appear in SMILES notation.

T1 sequence (P12821 whole entry): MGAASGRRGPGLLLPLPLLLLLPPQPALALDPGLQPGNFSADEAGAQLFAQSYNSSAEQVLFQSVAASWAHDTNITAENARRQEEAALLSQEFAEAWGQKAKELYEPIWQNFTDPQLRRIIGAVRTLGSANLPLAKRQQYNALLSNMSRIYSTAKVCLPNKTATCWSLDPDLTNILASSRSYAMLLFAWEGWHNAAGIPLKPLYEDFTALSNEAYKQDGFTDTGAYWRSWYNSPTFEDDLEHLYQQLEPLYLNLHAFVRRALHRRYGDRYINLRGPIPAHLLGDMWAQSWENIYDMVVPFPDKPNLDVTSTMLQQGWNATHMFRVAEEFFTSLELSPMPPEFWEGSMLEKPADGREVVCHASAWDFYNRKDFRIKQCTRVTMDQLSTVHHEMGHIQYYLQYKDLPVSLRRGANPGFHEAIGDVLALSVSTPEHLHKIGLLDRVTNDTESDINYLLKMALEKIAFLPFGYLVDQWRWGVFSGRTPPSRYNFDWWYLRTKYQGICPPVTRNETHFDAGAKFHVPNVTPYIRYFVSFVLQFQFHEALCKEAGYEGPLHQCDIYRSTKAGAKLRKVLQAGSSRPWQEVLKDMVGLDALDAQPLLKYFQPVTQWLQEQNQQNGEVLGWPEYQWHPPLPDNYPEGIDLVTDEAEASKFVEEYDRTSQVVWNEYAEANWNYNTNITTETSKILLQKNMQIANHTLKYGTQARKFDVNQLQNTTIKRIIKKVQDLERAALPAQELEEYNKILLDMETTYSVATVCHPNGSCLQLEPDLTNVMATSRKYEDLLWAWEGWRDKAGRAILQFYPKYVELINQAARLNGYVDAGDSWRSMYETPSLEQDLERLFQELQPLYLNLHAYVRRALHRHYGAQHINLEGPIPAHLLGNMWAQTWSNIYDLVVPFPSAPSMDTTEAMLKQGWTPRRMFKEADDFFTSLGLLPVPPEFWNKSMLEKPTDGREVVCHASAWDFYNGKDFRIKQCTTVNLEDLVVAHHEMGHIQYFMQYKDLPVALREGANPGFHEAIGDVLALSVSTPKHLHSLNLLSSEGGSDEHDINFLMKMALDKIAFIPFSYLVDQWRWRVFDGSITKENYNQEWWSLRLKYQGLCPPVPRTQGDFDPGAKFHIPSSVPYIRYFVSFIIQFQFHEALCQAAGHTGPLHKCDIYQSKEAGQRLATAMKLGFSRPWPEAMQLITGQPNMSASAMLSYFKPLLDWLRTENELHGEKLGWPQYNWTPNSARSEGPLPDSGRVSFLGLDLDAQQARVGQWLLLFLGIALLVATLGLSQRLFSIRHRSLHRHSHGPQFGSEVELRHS

The inhibition is the relative decrease from the control value, in per cent. Low values mean little suppression, high ones strong suppression. By IC50 is commonly meant the midpoint of a concentration-inhibition curve. On to `O=c1c2cc(O)c(O)cc2oc2cc(O)c(O)cc12`, for which the inhibition was 11.7% in assay [1], 26.8% in assay [2] and 17.2% in assay [3]. In assay [4], this compound displayed a half-inhibitory concentration (IC50) of more than 769 µM.
One may read the Ki as a measure of affinity in units of concentration, obtained from inhibition or displacement. Read a low Ki as higher affinity. Take `O=c1c2ccc(O)c(O)c2oc2c(O)c(O)ccc12`: the inhibition in assay [1] was found to be 34.3%; in [2] it was 55.5%; in [3], 46.2%. Further, the IC50 in assay [4] was found to be 239 µM. The same compound returned a Ki in assay [5] of 126 µM.
In [1], `CC(=O)Oc1cc(OC(C)=O)c2c(=O)c3ccc(OC(C)=O)c(OC(C)=O)c3oc2c1` gave an inhibition of less than 1%.
Same read-out and setting: in the case of `CC(=O)Oc1ccc2c(=O)c3ccc(OC(C)=O)c(OC(C)=O)c3oc2c1OC(C)=O` it was 7%; in that of `CC(=O)Oc1cc2oc3c(OC(C)=O)c(OC(C)=O)ccc3c(=O)c2cc1OC(C)=O`, 9.82%.
Take `O=c1c2cc(O)c(O)cc2oc2cc(O)cc(O)c12`: the inhibition in assay [1] was 15.5%; in [2], 40.3%; in assay [3] it was 23.5%. The half-maximal inhibitory concentration (IC50) in assay [4] turned out to be 531 µM. This compound also had an inhibition constant (Ki) in [5] of 250 µM.
For orientation: inhibition in vivo means the change of the read-out against control, counted positive when it falls. Consider `O=c1c2cc(O)c(O)cc2oc2c(O)c(O)ccc12`, for which the inhibition in vivo at 40 mg/kg in the assay with Rattus norvegicus [6] was 10%; with Rattus norvegicus [8], 47.8%; in the assay with Rattus norvegicus [12], 30.8%. The inhibition in [1] worked out at 83.1%; in assay [2] it was 95%; in [3] it was 90%. The inhibition in vivo at 80 mg/kg was 13% in the assay on Rattus norvegicus [7], 52.7% in the assay with Rattus norvegicus [9] and 32.5% in the assay on Rattus norvegicus [10]. Moreover, the affinity in assay [5], expressed as Ki, was 14.2 µM. In addition, the inhibition in vivo at 20 mg/kg was 5.9% with Rattus norvegicus [11], 0% in the assay on Rattus norvegicus [13] and 33.8% in the assay on Rattus norvegicus [14].
`C[C@H](CS)C(=O)N1CCC[C@H]1C(=O)O` [CAPTOPRIL]: the inhibition in vivo at 0.4 mg/kg in the assay on Rattus norvegicus [15] amounted to 66.6%; with Rattus norvegicus [17], 78.5%; with Rattus norvegicus [18] it was 45.5%. For the same compound, the inhibition in vivo at 0.04 mg/kg with Rattus norvegicus [16] turned out to be 10%; in the assay with Rattus norvegicus [19], 0%; in the assay on Rattus norvegicus [20], 0%.
With `O=c1c2ccc(O)c(O)c2oc2cc(O)cc(O)c12`, the inhibition in assay [1] was found to be 56.4%; in assay [2] it was 75.3%; in assay [3], 67.7%. This compound also had a concentration for half-maximal inhibition (IC50) in [4] of 69.2 µM. In [5], this compound gave a Ki of 34.2 µM.
The compound `CC(=O)Oc1cc(OC(C)=O)c2c(=O)c3cc(OC(C)=O)c(OC(C)=O)cc3oc2c1` had an inhibition in [1] of less than 1%.
Consider `CC(=O)Oc1cc2oc3cc(OC(C)=O)c(OC(C)=O)cc3c(=O)c2cc1OC(C)=O`, for which, in assay [1], the inhibition was less than 1%.

The values above are taken from ChEMBL document CHEMBL1159033, “Inhibition of angiotensin-I-converting enzyme by tetrahydroxyxanthones isolated from Tripterospermum lanceolatum” (J Nat Prod, 1992).
